Laboratory results as given in patent US20250026789A1, “PEPTIDE HAVING INHIBITORY ACTIVITY AGAINST AMYLOID PRECURSOR PROTEIN AND USE THEREOF” ([…]., priority 2021, published 2025).
“Also recorded” adds a separate entry of the source.

What was measured:
Assay type in all cases: cell-based, human
[1] = test system: ADAM 17; assay: ADAM 17 expression by real-time qPCR in SH-SY5Y cells; settings: peptide 0.001, 0.01, 0.1, or 1 mM, 24 hours, vs control group without peptide
Procedure: (§1) ADAM 17 is an enzyme that removes APP from the cell membrane surface by cleaving it into a non-toxic fragment, sAPPa. Therefore, the increased expression of ADAM 17 may be used as an indicator of a therapeutic effect on a neurodegenerative disease. Specifically, the prepared peptides were added to SH-SY5Y, a neural cell line, at a concentration of 0.001, 0.01, 0.1, or 1 mM, and cultured at 37° C. and 5% CO2 for 24 hours. Afterward, total RNA was extracted from the culture, cDNA was synthesized, and real-time qPCR was performed using the ADAM 17 primers shown in Table 4 below to measure the expression level of […]. In addition, the prepared peptides were added to SH-SY5Y, a human neural cell line, at a concentration of 0.001, 0.01, 0.1, or 1mM, and cultured at 37° C. and 5% CO2 for 24 hours. Afterward, the expression of ADAM 17 protein from the culture and the expression of sAPPa, which was cleaved from APP by ADAM 17 and ADAM 10 and released, were confirmed through Western blotting using antibodies against each protein. In addition, the distribution of APP on the surface of a nerve cell membrane was analyzed using flow cytometric analysis. Meanwhile, a group to which no peptide was added was used as a control group.
The prepared peptides were added to SH-SY5Y, a neural cell line, at a concentration of 0.001, 0.01, 0.1, or 1 mM, and the cells were cultured at 37° C. and 5% CO2 for 24 hours. Afterward, total RNA was extracted from the culture, cDNA was synthesized, and real-time qPCR was performed using the ADAM 17 primers in Table 4 above to measure the expression level of ADAM 17. Meanwhile, a group to which no peptide was added was used as a control group.

[2] = test system: amyloid precursor protein (APP); assay: APP expression by real-time qPCR in SH-SY5Y cells; settings: peptide 0.001, 0.01, 0.1, or 1 mM, 24 hours, vs control group without peptide
Procedure: (§2) In the present example, the effect of inhibiting the expression of APP by peptide treatment was confirmed. To this end, the prepared peptides were added at a concentration of 0.001, 0.01, 0.1, or 1 mM to SH-SY5Y, which is a human neural cell line obtained by isolating cells from the bone marrow of a human having neuroblastoma and proliferating them, and then the cells were cultured for 24 hours. Afterward, total RNA was extracted from the culture, cDNA was synthesized, and real-time quantitative polymerase chain reaction (qPCR) was performed using the APP primers shown in Table 2 below to measure the expression level of amyloid precursor protein (APP). Meanwhile, a group to which no peptide was added was used as a control group, and a group to which a random peptide was added (NRP1: AFMVDNEAIYDICR (SEQ ID NO: 9)) was used as a comparative group.
as §2, with “of amyloid precursor protein” for “of APP”, “real-time qPCR” for “real-time quantitative polymerase chain reaction (qPCR)”, “2 above” for “2 below”, “of APP.” for “of amyloid precursor protein (APP).”

[3] = test system: IL-10; assay: IL-10 expression by real-time qPCR in SH-SY5Y cells; settings: peptide 0.001, 0.01, 0.1, or 1 mM, 24 hours, vs control group without peptide
Procedure: In the present example, to confirm the effect inhibiting a neuroinflammatory response by peptide treatment, which is one of the main causes of a neurodegenerative disease, the effect of increasing the expression of IL-10, one of the anti-inflammatory cytokines, was confirmed. Specifically, the prepared peptides were added to SH-SY5Y, a human neural cell line, at a concentration of 0.001, 0.01, 0.1, or 1 mM, and the cells were cultured at 37° C. and 5% CO2 for 24 hours. Afterward, total RNA was extracted from the culture, cDNA was synthesized, and real-time qPCR was performed using the IL-10 primers in Table 6 below to measure the expression level of IL-10. Meanwhile, a group to which no peptide was added was used as a control group.
In the present example to confirm the effect of inhibiting a neuroinflammatory response, which is one of the main causes of a neurodegenerative disease, by peptide treatment, the effect of increasing the expression of IL-10, one of the anti-inflammatory cytokines, was attempted. Specifically, the prepared peptide was added to SH-SY5Y, a human neural cell line, at a concentration of 0.001, 0.01, 0.1, or 1 mM, and the cells were cultured at 37° C. and 5% CO2 for 24 hours. Afterward, total RNA was extracted from the culture, cDNA was synthesized, and real-time qPCR was performed using the IL-10 primers in Table 6 above to measure the expression level of IL-10. Meanwhile, a group to which no peptide was added was used as a control group.

[4] = test system: Brain Derived Neurotrophic Factor (BDNF); assay: BDNF expression by real-time qPCR in SH-SY5Y cells; settings: peptide 0.001, 0.01, 0.1, or 1 mM, 24 hours, vs control group without peptide
Procedure: In the present example, to confirm the effect of improving or treating a degenerative neurological disease through the regeneration of the nervous system by peptide treatment, the effect of increasing the expression of Brain Derived Neurotrophic Factor (BDNF) was examined. Specifically, the prepared peptides were added to SH-SY5Y, a human neural cell line, at a concentration of 0.001, 0.01, 0.1, or 1 mM, and the cells were cultured at 37° C. and 5% CO2 for 24 hours. Afterward, total RNA was extracted from the culture, cDNA was synthesized, and real-time qPCR was performed using the BDNF primers shown in Table 8 below to measure the expression level of BDNF. Meanwhile, a group to which no peptide was added was used as a control group.

[5] = test system: IDE (insulin degrading enzyme); assay: IDE expression by real-time qPCR in SH-SY5Y cells; settings: peptide 0.01, 0.1, or 1 mM, 24 hours, vs control group without peptide
Procedure: IDE is an enzyme that degrades senile plaques produced and aggregated by beta-amyloid (Ab1-42, 1-40). Therefore, the increased expression of IDE may be used as an indicator of a therapeutic effect of a neurodegenerative disease. Specifically, the prepared peptides were added to SH-SY5Y, a human neural cell line, at a concentration of 0.01, 0.1, or 1 mM, and the cells were cultured at 37° C. and 5% CO2 for 24 hours. Afterward, total RNA was extracted from the culture, cDNA was synthesized, and real-time qPCR was performed using the IDE primers in Table 5 below to measure the expression level of IDE. Meanwhile, a group to which no peptide was added was used as a control group.

[6] = test system: SH-SY5Y; assay: Neurite growth in SH-SY5Y cells (microscope, length); settings: peptide 0.01, 0.1, or 1 mM, 24 hours
Procedure: In the present example, to confirm the regeneration of neurons by treatment with the peptides, the growth of neurites was confirmed. Specifically, the prepared peptides were added to SH-SY5Y, a human neural cell line, at a concentration of 0.01, 0.1, or 1 mM, and the cells were cultured for 24 hours. Afterward, the grown neurites were confirmed through a microscope, and their length was measured and evaluated.

[7] = test system: ADAM 10; assay: ADAM 10 expression by real-time qPCR in SH-SY5Y cells; settings: peptide 0.001, 0.01, 0.1, or 1 mM, 24 hours, vs control group without peptide
Procedure: ADAM 10 is an alpha-secretase that cleaves APP into a non-toxic fragment and inhibits the production of beta-amyloid (β-amyloid, Ab1-42, 1-40). Therefore, the increased expression of ADAM 10 may be used as an indicator of a therapeutic effect on a neurodegenerative disease. Specifically, the prepared peptides were added to SH-SY5Y, a human neural cell line, at a concentration of 0.001, 0.01, 0.1, or 1 mM, and the cells were cultured at 37° C. and 5% CO2 for 24 hours. Afterwards, total RNA was extracted from the culture, cDNA was synthesized, and real-time qPCR was performed using the ADAM 10 primers shown in Table 3 below to measure the expression level of ADAM 10. Meanwhile, a group to which no peptide was added was used as a control group.

[8] = test system: ADAM 17 protein; assay: ADAM 17 protein expression by Western blotting in SH-SY5Y cells; settings: peptide 0.001, 0.01, 0.1, or 1 mM, 24 hours, vs control group without peptide
Procedure: as §1

[9] = test system: sAPPa; assay: sAPPa expression by Western blotting in SH-SY5Y cells; settings: peptide 0.001, 0.01, 0.1, or 1 mM, 24 hours, vs control group without peptide
Procedure: as §1

Row | Sequence | expression of ADAM 17 (gene, qPCR) [1] | expression of APP [2] | expression of IL-10 [3] | expression of BDNF [4] | expression of IDE [5] | length of the neurites [6] | expression of ADAM 10 [7] | expression of ADAM 17 protein (Western blotting) [8] | expression of sAPPa (Western blotting) [9]
1 | GRILGFSPFR [Peptide-12] | increased | inhibited | increased | increased; also recorded: more significant |  |  |  |  | 
2 | GRPPGFSLAR [Peptide-11] | increased | inhibited | increased | increased; also recorded: more significant |  |  |  |  | 
3 | IKLLSIVAWAKKKI [Peptide-2] |  |  |  |  | increased | increased |  |  | 
4 | INIKVLIAKKIL [Peptide-4] | increased | inhibited | increased |  | increased |  | increased | increased | increased
5 | INLKALAAKIKIL [Peptide-3] |  |  | increased |  | increased |  | increased |  | 
6 | INLLKIAGKIINIL [Peptide-9] | increased |  | increased; also recorded: more significant | increased |  |  |  |  | 
7 | INLLKSEGKIIKSL [Peptide-10] | increased |  |  | increased |  |  |  |  | 
8 | KALAALAKK [Peptide-8] |  | inhibited |  |  | increased |  | increased |  | 
9 | KALAALAKKIL [Peptide-7] |  | inhibited | increased |  | increased |  | increased | increased | increased
10 | LKLKALAALIKKIL [Peptide-1] | increased | inhibited | increased |  | increased | increased |  | increased | increased
11 | LNIRGLGAKKKI [Peptide-5] |  | inhibited | increased |  | increased |  | increased |  | 
12 | LNLRGLAKKKL [Peptide-6] |  |  |  |  | increased | increased |  |  | 
